Data published in patent US7973162B2, “Modulators of muscarinic receptors” (Vertex Pharmaceuticals Incorporated, priority 2007, dated 2011).

What was measured:
Type in all cases: cell-based
M1 muscarinic receptor = molecular target: T1, M1 muscarinic receptor (Homo sapiens, UniProt P11229); test: Functional mobilization of intracellular calcium (FLIPR), M1-CHO cells; settings: for EC50: CHO cells expressing M1, calcium mobilization
T1 construct: expressed in transfected cells; host or cells: CHO (M1-CHO)
T1 sequence (P11229 1-460): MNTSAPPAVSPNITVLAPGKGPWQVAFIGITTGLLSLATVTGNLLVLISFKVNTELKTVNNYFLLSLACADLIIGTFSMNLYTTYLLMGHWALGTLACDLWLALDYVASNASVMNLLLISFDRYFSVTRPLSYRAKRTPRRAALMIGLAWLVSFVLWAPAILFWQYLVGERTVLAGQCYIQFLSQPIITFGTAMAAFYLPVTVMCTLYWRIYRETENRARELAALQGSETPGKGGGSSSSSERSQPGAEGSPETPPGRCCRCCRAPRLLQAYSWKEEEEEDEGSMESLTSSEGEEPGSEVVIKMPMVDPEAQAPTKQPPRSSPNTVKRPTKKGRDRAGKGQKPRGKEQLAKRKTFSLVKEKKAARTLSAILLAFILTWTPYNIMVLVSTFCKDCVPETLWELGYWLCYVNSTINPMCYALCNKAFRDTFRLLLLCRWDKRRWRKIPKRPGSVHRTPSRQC
Experimental: (§1) Functional Mobilization of Intracellular Calcium to Determine Muscarinic Receptor Activity:
(§2) CHO cells expressing muscarinic receptors (M1 to M5) are grown as monolayers in tissue culture flasks at 37° C. in a humidified atmosphere containing 5% CO2 and passaged every 3-5 days. The growth media is Dulbecco's modified eagles medium (DMEM, Gibco Cat# 12430-054), containing 25 mM Hepes and supplemented with Fetal Bovine Serum (Hyclone, cat #SH30071.03), 0.1 mM of MEM non-essential amino acids (GIBCO, Cat #11140-050), 1 mM MEM Sodium Pyruvate (GIBCO Cat #11360-070) and 100 units/ml of Penicillin G and 100 μg/ml of Streptomycin (GIBCO Cat #15140-122). The recombinant muscarinic receptor cell lines are grown under antibiotic pressure with media containing 25 μg/ml zeocin and 500 μg/ml G418 (M1-CHO), 4 μg/ml puromycin, 50 μg/ml zeocin and 2.5 μg/ml blasticidin (M2 and M4-CHO) or 50 μg/ml zeocin and 4 μg/ml puromycin (M3 and M5-CHO).
(§3) Cells are harvested at 80-90% confluence using Versene (GIBCO Cat #15040-066), collected by centrifugation and seeded 18-24 hrs prior to running the calcium assay at a density of 5,000-10,000 cells/well in […], clear-bottomed 384-well plates (BD Biocoat, poly-D-lysine, Cat#356663). The day of the experiment, the cells are washed with a plate washer (Bioteck Instruments, ELX 405) using bath1 buffer (140-mM NaCl, 4.5-mM KCl, 2-mM CaCl2, 1-mM MgCl2, 10-mM Hepes-Na, 10-mM Glucose, pH 7.4, with NaOH) containing 1 mM Probenecid. Next, the calcium dye Fluo-3 (25 μl/well of Fluo-3 AM at 4 μM, Molecular Probes F-1241, in Bath 1 buffer containing 1 mM Probenecid) is added to the 25 μl of Bath 1 remaining in each well after the plate wash and the dye is loaded at 37° C. in the tissue culture incubator for 60-90 min. The fluorescent dye is removed using the plate washer with Bath 1 containing 1 mM Probenecid, leaving 25 μl/well of this solution after the wash. Alternatively, cells can be loaded with the calcium indicator from Molecular Devices (Calcium 3 Assay Reagents, Cat #R7181) adding 5 μl of a 5× solution dye in Bath 1 containing 1 mM Probenecid (10 ml per dye flask cat #R7182 to generate a solution 20×) to 20 μl of the same buffer. After loading for 60 min, the experiment can be run without having to remove the dye.
(§4) Compounds are prepared at a 2× fold concentration in a 96-well plate (round bottom, Costar Corning cat #3656), by reconstituting the pre-spotted compounds in bath 1 containing 1 mM probenecid. The final concentration DMSO is 0.5%, and the amount of DMSO is normalized across the assay plate. To determine an agonist action of the compounds on muscarinic receptors, the reconstituted compounds are added (25 μl compound/well) to the cell assay plate (containing 25 μl/well) using the multi-channel robotic system of the FLIPR 3 Instrument (Molecular Devices, Sunnyvale, Calif.). To determine a functional inhibitory action of the compounds on muscarinic receptors, the reconstituted compounds are added (25 μl compound/well) to the assay plate and pre-incubated for 15 min prior to adding 25 μl of Carbachol at 3× the EC80 for each muscarinic subtype. Alternatively, the compounds can be co-applied simultaneously with the agonist. In both assay modes, the fluorescence is recorded for 60 sec (excitation wavelength is […] and emission wavelength 540 nm) using the FLIPR 3 instrument.
(§5) The potency, efficacy and selectivity of the muscarinic compounds were evaluated by screening the compound activity across the whole family (M1 to M5 cells). Compounds were also screened for activity on other proteins such as other GPCRs and ion channels to determine selectivity on M4 receptors.
(§6) Examples of activities and efficacies of the muscarinic compounds of formulae (I, Ia, and Ib) on modulating M1 and M4 receptors are shown below in Table 3. […]

M2 muscarinic receptor = molecular target: T2, M2 muscarinic receptor (Homo sapiens, UniProt P08172); test: Functional mobilization of intracellular calcium (FLIPR), M2-CHO cells; settings: for EC50: CHO cells expressing M2, calcium mobilization
T2 construct: expressed in transfected cells; host or cells: CHO (M2-CHO)
T2 sequence (P08172 1-466): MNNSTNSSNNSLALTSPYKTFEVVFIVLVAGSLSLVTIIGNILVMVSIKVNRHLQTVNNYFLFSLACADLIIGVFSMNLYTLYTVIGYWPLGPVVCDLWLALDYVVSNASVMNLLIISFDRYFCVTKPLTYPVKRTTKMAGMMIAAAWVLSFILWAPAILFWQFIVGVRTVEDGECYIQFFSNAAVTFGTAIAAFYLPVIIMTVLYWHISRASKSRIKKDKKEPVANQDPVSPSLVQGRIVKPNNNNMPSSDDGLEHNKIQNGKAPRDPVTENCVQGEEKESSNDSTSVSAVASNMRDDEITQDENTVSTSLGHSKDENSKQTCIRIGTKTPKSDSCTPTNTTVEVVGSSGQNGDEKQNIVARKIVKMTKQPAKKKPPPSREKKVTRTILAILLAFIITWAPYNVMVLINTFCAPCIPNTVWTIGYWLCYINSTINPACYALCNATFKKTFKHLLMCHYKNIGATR
Experimental: as §1, §2, §3, §4, §5, §6

M3 muscarinic receptor = molecular target: T3, M3 muscarinic receptor (Homo sapiens, UniProt P20309); test: Functional mobilization of intracellular calcium (FLIPR), M3-CHO cells; settings: for EC50: CHO cells expressing M3, calcium mobilization
T3 construct: expressed in transfected cells; host or cells: CHO (M3-CHO)
Experimental: as §1, §2, §3, §4, §5, §6

M4 muscarinic receptor = molecular target: T4, M4 muscarinic receptor (Homo sapiens, UniProt P08173); test: Functional mobilization of intracellular calcium (FLIPR), M4-CHO cells; settings: for EC50: CHO cells expressing M4, calcium mobilization
T4 construct: expressed in transfected cells; host or cells: CHO (M4-CHO)
T4 sequence (P08173 1-479): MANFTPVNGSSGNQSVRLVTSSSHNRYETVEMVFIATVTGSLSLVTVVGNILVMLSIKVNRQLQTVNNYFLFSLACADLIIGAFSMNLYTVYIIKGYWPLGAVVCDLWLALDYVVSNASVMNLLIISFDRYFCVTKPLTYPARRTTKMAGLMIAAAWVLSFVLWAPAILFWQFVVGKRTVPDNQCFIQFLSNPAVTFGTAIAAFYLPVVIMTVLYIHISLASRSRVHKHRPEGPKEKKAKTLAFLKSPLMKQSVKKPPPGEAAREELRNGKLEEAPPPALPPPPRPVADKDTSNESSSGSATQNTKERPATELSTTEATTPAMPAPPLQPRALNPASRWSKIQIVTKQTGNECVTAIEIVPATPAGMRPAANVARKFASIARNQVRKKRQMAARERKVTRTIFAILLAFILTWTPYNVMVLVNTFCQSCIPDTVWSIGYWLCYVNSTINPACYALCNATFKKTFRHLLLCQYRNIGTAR
Experimental: as §1, §2, §3, §4, §5, §6

[1] = 100% efficacy = maximum response obtained with the Carbachol control

T3 sequence (P20309 whole entry): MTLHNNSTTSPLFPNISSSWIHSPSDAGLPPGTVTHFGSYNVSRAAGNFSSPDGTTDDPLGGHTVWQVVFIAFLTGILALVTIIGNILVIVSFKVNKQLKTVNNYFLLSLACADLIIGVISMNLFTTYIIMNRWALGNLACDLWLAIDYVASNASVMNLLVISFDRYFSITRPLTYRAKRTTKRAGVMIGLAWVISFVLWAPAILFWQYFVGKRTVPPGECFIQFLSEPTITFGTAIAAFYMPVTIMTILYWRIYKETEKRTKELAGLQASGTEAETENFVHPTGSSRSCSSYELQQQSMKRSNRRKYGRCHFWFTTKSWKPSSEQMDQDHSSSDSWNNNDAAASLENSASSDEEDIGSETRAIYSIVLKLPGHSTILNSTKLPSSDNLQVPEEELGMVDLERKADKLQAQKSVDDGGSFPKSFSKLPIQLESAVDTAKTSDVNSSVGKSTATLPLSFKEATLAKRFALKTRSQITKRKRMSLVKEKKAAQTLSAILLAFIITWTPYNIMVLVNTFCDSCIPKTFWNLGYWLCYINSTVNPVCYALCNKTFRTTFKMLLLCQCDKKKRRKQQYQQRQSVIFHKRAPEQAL

| SMILES | Emax (M1 muscarinic receptor; [1]) | EC50 (M1 muscarinic receptor) | Emax (M2 muscarinic receptor; [1]) | EC50 (M2 muscarinic receptor) | Emax (M3 muscarinic receptor; [1]) | EC50 (M3 muscarinic receptor) | Emax (M4 muscarinic receptor; [1]) | EC50 (M4 muscarinic receptor) | M1 Efficacy (M1 muscarinic receptor; [1]) | M2 Efficacy (M2 muscarinic receptor; [1]) | M3 Efficacy (M3 muscarinic receptor; [1]) | M4 Efficacy (M4 muscarinic receptor; [1]) |
| --- | --- | --- | --- | --- | --- | --- | --- | --- | --- | --- | --- | --- |
| CCOC(=O)N1CCC(N2CCC3(CC2)C[C@H]2CC(=O)N(CCOC)[C@H]2c2ccccc23)CC1 [Compound 1] | 25 to 100% | < 2000 nM | 25 to 100% | < 2000 nM | < 25% | > 5000 nM | 25 to 100% | < 2000 nM |  |  |  |  |
| CCOC(=O)N1CCC(N2CCC3(CC2)CC2CCOC2c2ccccc23)CC1 (stereo not shown) [Compound 2] | 25 to 100% | < 2000 nM | 25 to 100% | < 2000 nM | < 25% | > 5000 nM | 25 to 100% | < 2000 nM |  |  |  |  |
| CN1C(=O)C[C@@H]2CC3(CCN(C4CC5CCC(C5)C4)CC3)c3ccccc3[C@@H]21 (stereo partly shown) [Compound 3] |  | < 2000 nM |  | < 2000 nM |  | > 5000 nM |  | < 2000 nM | ++ (efficacy was calculated to be from 100% to 25%) | + (efficacy was calculated to be less than 25%) | + (efficacy was calculated to be less than 25%) | ++ (efficacy was calculated to be from 100% to 25%) |
| CCOC(=O)N1CCC(N2CCC3(CC2)CC2CC(=O)OC2c2ccccc23)CC1 (stereo not shown) [Compound 4] | 25 to 100% | < 2000 nM | 25 to 100% | < 2000 nM | 25 to 100% | > 5000 nM | 25 to 100% | < 2000 nM |  |  |  |  |
| O=C1C[C@@H]2CC3(CCN(C4CC5CCC(C5)C4)CC3)c3ccccc3[C@@H]2N1 (stereo partly shown) [Compound 5] | 25 to 100% | < 2000 nM | 25 to 100% | < 2000 nM | < 25% | > 5000 nM | 25 to 100% | < 2000 nM |  |  |  |  |
| c1ccc2c(c1)C1OCCC1CC21CCN(C2C[C@H]3CC[C@@H]2C3)CC1 (stereo partly shown) [Compound 6] | < 25% | > 5000 nM | < 25% | > 5000 nM | < 25% | > 5000 nM | 25 to 100% | < 2000 nM |  |  |  |  |
| O=C1C[C@@H]2CC3(CCN(C4CCCCC4)CC3)c3ccccc3[C@@H]2N1 [Compound 7] | 25 to 100% | < 2000 nM | 25 to 100% | < 2000 nM | < 25% | > 5000 nM | 25 to 100% | < 2000 nM |  |  |  |  |
| c1ccc2c(c1)C1OCCC1CC21CCN(C2CC3CCC(C3)C2)CC1 (stereo not shown) [Compound 8] | 25 to 100% | > 5000 nM | < 25% | > 5000 nM | < 25% | > 5000 nM | 25 to 100% | < 2000 nM |  |  |  |  |
| CCOC(=O)N1CCC(N2CCC3(CC2)C[C@H]2CC(=O)N[C@H]2c2ccccc23)CC1 [Compound 9] | 25 to 100% | < 2000 nM | 25 to 100% | < 2000 nM | 25 to 100% | < 2000 nM | 25 to 100% | < 2000 nM |  |  |  |  |
| CN1C(=O)C[C@@H]2CC3(CCN(C4CCCCCC4)CC3)c3ccccc3[C@@H]21 [Compound 10] | 25 to 100% | 2000 to 5000 nM | 25 to 100% | > 5000 nM | < 25% | > 5000 nM | 25 to 100% | < 2000 nM |  |  |  |  |
| c1ccc2c(c1)C1OCCC1CC21CCN(C2CCCCCC2)CC1 (stereo not shown) [Compound 11] | 25 to 100% | 2000 to 5000 nM | < 25% | > 5000 nM | < 25% | > 5000 nM | 25 to 100% | < 2000 nM |  |  |  |  |
